SMILES strings stand for the structures. The source made the active and inactive calls.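 The calls were made as follows: active = compounds giving half or more protection of infected cells from virus-caused growth loss, again on retest; inactive = the rest.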 Where a SMILES comes first, the peptide text is derived from it. Bridges are numbered along the chain shown (N, C = ends). The star is where a group is joined. Boc = CC(C)(C)OC(=O)*; Bn = c1ccc(C*)cc1

The experiment concerns CEM cells HIV-1 protection, formazan growth assay. In words: NCI AIDS Antiviral Assay. The conditions noted are these: for IC50: measured here: growth of uninfected CEM cells. In a few lines:
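Category rules: moderately active means at least 50% protection on retest, and confirmed active means 100% protection reproducibly. The underlying data came from a formazan growth assay in HIV-1-infected CEM cells.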

On to `COc1cc(-c2[o+]c3cc(O)cc(OC4OC(CO)C(O)C(O)C4O)c3cc2OC2OC(CO)C(O)C(O)C2O)cc(OC)c1O` (stereo unspecified), for which the EC50 is more than 67.6 µM and the IC50 is 40.7 µM.
Turning to `O=C(/C=C\c1ccc(Cl)c(Cl)c1)c1ccc(Cl)cc1Cl`, the EC50 was more than 14.5 µM and the IC50 is more than 14.5 µM.
With `CC(=O)Nc1ccc(-c2nnc(SCC(=O)Nc3cccc([N+](=O)[O-])c3)o2)cc1`, the EC50 is more than 45.7 µM and the concentration for half-maximal inhibition (IC50) is 7.76 µM.
Consider `Nc1ncnc2c1ncn2COC/C=C/I`, for which the EC50 was more than 204 µM and the 50% inhibitory concentration (IC50) was found to be 155 µM.
Turning to `C=CCCCC(C(=O)OCC)C(=O)OCC`, the outcome was inactive.
In the case of `C#CCN(Cc1ccc2nc(-c3ccccc3)c(Cl)nc2c1)c1cc(OC)c(OC)c(OC)c1`, the EC50 was more than 7.94 µM and the concentration for half-maximal inhibition (IC50) is more than 7.94 µM.
With `COc1ccc(C2Oc3cc(OC)ccc3C(=O)C2c2ccccc2)cc1` (stereo unspecified), the EC50 was more than 200 µM and the IC50 came to 31.6 µM.
The like results for `CCc1ccccc1C1(Br)C(=O)c2ccccc2C1=O` were, in that order, more than 200 µM and 45.7 µM.
The like results for `C=CC[C@]12CC(OC)C(OC)CC1(OC)O[C@@H](c1cc(OC)c(OC)c(OC)c1)[C@H]2C` (stereo partly specified) were, in that order, more than 200 µM and 155 µM.
On the same counts, the results for `Cc1cccc2c1Oc1ccccc1C2NC(=O)CCN(C)C` (stereo unspecified) are more than 200 µM and 38 µM.
On to `CCOC(=O)N1CCc2cc(OC)c(OC)cc2/C1=C/c1ccc(OC)c(OC)c1`, for which the result was inactive.
For `CCC(C)C1NC(=O)C(CC(C)C)NC(=O)C(C(C)C)NC(=O)C2CSSCC(NC1=O)C(=O)N2` (stereo unspecified) (cyclo(CCVLI); disulfide 1-2; configuration not given here), the EC50 was more than 2 µM and the IC50 is 0.339 µM.
The like results for `COc1cccc(NC(=O)C(=O)C(C(=O)c2ccccc2F)C2OC(=O)c3ccccc32)c1` (stereo unspecified) were, in that order, more than 288 µM and 10.7 µM.
On to `COC(=O)[C@](NC(=O)OCc1ccccc1)([C@@H](C)S(=O)c1ccc(C)cc1)C(F)(F)F` (stereo partly specified), for which the EC50 is more than 200 µM and the 50% inhibitory concentration (IC50) came to 29.5 µM.
For the compound `Cc1oc2c(c(C)nn2-c2ccccc2)c(=O)c1Cl`, the EC50 is more than 200 µM and the half-inhibitory concentration (IC50) was determined as 174 µM.
Take `C/C=C1/CN2C3CC1C1(C(=O)OC)C(OC(C)=O)[C@]4(C[C@H]21)c1cc(OC)ccc1N(C)C34` (stereo partly specified): the outcome was inactive.
On to `COc1ccc(/C=N/Nc2nnc3c4ccccc4c4ncccc4c3n2)cc1`, for which the EC50 was more than 501 µM and the concentration for half-maximal inhibition (IC50) was more than 501 µM.
On to `Cc1ccc(C(=O)C2=CN=C3C(=O)N(c4ccccc4)N(C)C3(C)C2=N)cc1` (stereo unspecified), for which the EC50 was more than 200 µM and the 50% inhibitory concentration (IC50) was more than 200 µM.
Turning to `CN(C)c1c(-c2ccccc2)cc(-c2ccccc2)[nH]c1=O`, the EC50 is more than 64.6 µM and the half-inhibitory concentration (IC50) is more than 64.6 µM.
Regarding `CC1=C(C(=O)Nc2ccc(Cl)c(Cl)c2)C(c2ccco2)C(C(=O)Nc2ccc(Cl)c(Cl)c2)=C(C)N1`, the EC50 was more than 33.9 µM and the IC50 was 13.8 µM.
For the compound `CC(=O)NCC1OC2COC(c3ccccc3)OC2C2N=C(c3ccccc3)OC12` (stereo unspecified), the outcome was inactive.
In the case of `CC(=O)Oc1c2occc2cc2ccc(=O)oc12`, the EC50 is more than 72.4 µM and the half-maximal inhibitory concentration (IC50) is more than 72.4 µM.
Consider `O=C(O)c1c(O)c2cc(Br)ccc2oc1=O`, for which the EC50 was more than 200 µM and the IC50 was found to be 120 µM.
The like results for `COCc1ccc2c(c1)C(O)NC(=O)O2` (stereo unspecified) were, in that order, more than 200 µM and 58.9 µM.
Take `CC(C)(C)OC(=O)NCC(CNC(=O)OC(C)(C)C)C(N)=O`: the EC50 was more than 407 µM and the IC50 was more than 407 µM.
For `CCN1CCC(O)(/C=C/c2ccc(Cl)cc2)C(C(=O)/C=C/c2ccc(Cl)cc2)C1` (stereo unspecified), the EC50 was more than 21.4 µM and the IC50 was more than 21.4 µM.
Regarding `CC1(C)C2CC(=O)C1(C)C(O)C2Br` (stereo unspecified), the outcome was inactive.
Consider `Cc1ccc2[c](c1)[Sn]([c]1ccccc1)([c]1ccccc1)[c]1cc(C)ccc1N2C`, for which the EC50 was more than 26.3 µM and the IC50 came out at 10.2 µM.
On the same counts, the results for `CC(C)(C)[Si](C)(C)OCC1=C(CC#N)C(O[Si](C)(C)C(C)(C)C)C(n2ccc(=O)[nH]c2=O)O1` (stereo unspecified) are more than 200 µM and 9.33 µM.
For the compound `S=c1sc2sc(=S)sc2s1`, the result was inactive.
Regarding `NC(=S)N/N=C/c1cn(CCCl)c2ccccc12`, the EC50 is more than 25.7 µM and the half-inhibitory concentration (IC50) was found to be 15.8 µM.
Turning to `COc1ccc(C=C(Cl)Cl)cc1OC`, the EC50 was more than 200 µM and the IC50 is more than 200 µM.
For `O=C1C(N=Nc2ccc([N+](=O)[O-])cc2)Sc2nc3ccccc3n21` (stereo unspecified), the EC50 was more than 200 µM and the IC50 was found to be 178 µM.
On the same counts, the results for `Cc1nc2sccn2c1C(=O)N/N=C1\SCC(=O)N1C` are more than 427 µM and more than 427 µM.
The like results for `COc1ccc(C2CC(c3ccccc3)=Nc3ccccc3S2)cc1` (stereo unspecified) were, in that order, more than 51.3 µM and 27.5 µM.
On the same counts, the results for `CCOC(=O)C1=C(O)C2C3CC4C2C(O)=C(C(=O)OCC)C2C1C3C42` (stereo unspecified) are more than 200 µM and 93.3 µM.
For `O=C(CCc1cc(-c2ccccc2)nc(=S)[nH]1)N(Cc1ccccc1)Cc1ccccc1`, the outcome was inactive.
Turning to `COC(=O)c1c(C)cc(OC(=O)c2c(C)cc(O)c(/C=N\Nc3ccccc3)c2O)c(C)c1O`, the EC50 was more than 200 µM and the IC50 is 9.77 µM.
As to `Cc1ccc(S(=O)(=O)Nn2c(-c3ccccc3)c(C#N)c(-c3ccc(Cl)cc3)c(C#N)c2=O)cc1`, the EC50 was more than 200 µM and the IC50 is 38.9 µM.
Consider `COC[C@H](C)N=CN1CCc2ccccc2C1`, for which the EC50 was more than 1070 µM and the concentration for half-maximal inhibition (IC50) was more than 1070 µM.
With `COc1ccc2oc(=N)c(C(N)=S)cc2c1`, the EC50 was more than 200 µM and the 50% inhibitory concentration (IC50) was 26.9 µM.
On the same counts, the results for `COc1ccc(-c2cc(=O)c3c(OC)c(OC)c(OC)c(OC)c3o2)cc1` are more than 120 µM and 110 µM.
For the compound `CCOC(=O)CCC(NC(=O)c1ccc(Nc2nc3ccccc3nc2C(=O)OCC)cc1)C(=O)OCC` (stereo unspecified), the EC50 was more than 138 µM and the concentration for half-maximal inhibition (IC50) is 85.1 µM.
On to `Cn1c2ccccc2c(=O)c2c(O)cc3c(c21)N=CC(C)(C)O3`, for which the result was inactive.
For `COc1c(C2=NC(C(C)C)CO2)ccc2ccccc12` (stereo unspecified), the EC50 was more than 186 µM and the IC50 was 20.9 µM.
As for `COC(=O)c1ccc2c(c1)CC1(C2)Cc2ccccc2C1=O` (stereo unspecified), the EC50 was more than 200 µM and the IC50 was 28.2 µM.
The like results for `O=C(CCCN1CC=C(n2c(=O)[nH]c3ccccc32)CC1)c1ccc(F)cc1` were, in that order, more than 200 µM and 89.1 µM.
Take `O=C(NC1CCCCC1)NC12CC3CC(CC(F)(C3)C1)C2`: the EC50 is more than 45.7 µM and the IC50 is more than 45.7 µM.
Take `COc1ccc(CCn2cnc3ccccc32)cc1`: the EC50 was more than 200 µM and the half-maximal inhibitory concentration (IC50) was more than 200 µM.
Consider `CNS(=O)(=O)NNS(=O)(=O)c1ccc(F)cc1`, for which the EC50 was more than 631 µM and the IC50 turned out to be 214 µM.
Consider `O=C1C(SCCO)=C(SCCO)C(=O)c2[nH]cnc21`, for which the EC50 is more than 437 µM and the 50% inhibitory concentration (IC50) was 42.7 µM.
Consider `O=C1c2cccc3cccc(c23)C(=O)N1c1ncn[nH]1`, for which the EC50 was more than 100 µM and the IC50 is more than 100 µM.
For `CC(=O)NC1(C)C(C)C2CC1C(C)C2(C)C` (stereo unspecified), the EC50 is more than 85.1 µM and the half-maximal inhibitory concentration (IC50) was more than 85.1 µM.
For `Cc1c(Cl)cccc1NC(=O)C(=O)c1c(O)c2ccc(O)cc2oc1=O`, the EC50 is more than 95.5 µM and the IC50 is more than 95.5 µM.
Regarding `O=C1SCC(O)=C1/C=N/Nc1nc2ccccc2o1`, the EC50 is more than 50.1 µM and the IC50 is 2.63 µM.
Take `NC1(C(=O)O)CCCC1`: the EC50 is more than 724 µM and the IC50 is more than 724 µM.
Consider `COc1ccc([C@H]2CC(=O)NCCCCN2)cc1`, for which the EC50 was more than 200 µM and the IC50 is more than 200 µM.
Turning to `COC(=O)C(CC(C)C)NC(=O)CNC(=O)C(Cc1ccc(OCc2ccccc2)cc1)NC(=O)C(COCc1ccccc1)NC(=O)OC(C)(C)C` (stereo unspecified) (Boc-S(Bn)Y(Bn)GL-OMe; configuration not given here), the EC50 is more than 200 µM and the half-inhibitory concentration (IC50) turned out to be 115 µM.
For `O=P(c1ccccc1)(c1ccccc1)c1ccc2c(c1)OCCOCCOCCOCCO2`, the EC50 was more than 200 µM and the IC50 is more than 200 µM.
In the case of `CCCC/C=C(\CCCNCCCC)[Si](C)(C)C`, the EC50 was more than 479 µM and the half-inhibitory concentration (IC50) was determined as 178 µM.
On the same counts, the results for `CC(C)C[C@H]1[C@@H](OCc2ccccc2)COS(=O)N1[C@H](C)c1ccccc1` (stereo partly specified) are more than 200 µM and 9.55 µM.
On the same counts, the results for `S=c1[nH]n2c(CCCCCCCCc3nnc4sc(=S)[nH]n34)nnc2s1` are 123 µM and 178 µM.
Regarding `COC(=O)C(C(=O)C(=O)Nc1ccc(C)cc1C)c1csc(-n2nc(-c3ccccc3)cc2-c2ccccc2)n1` (stereo unspecified), the EC50 is more than 158 µM and the half-inhibitory concentration (IC50) turned out to be 81.3 µM.
As for `COc1ccc(-c2c(N)cnc(C(=O)O)c2C)c(O)c1OC`, the result was inactive.
Turning to `COP1(=O)NCc2ncccc2O1` (stereo unspecified), the EC50 is more than 200 µM and the 50% inhibitory concentration (IC50) was more than 200 µM.
As for `CC(=O)OC(/C=C1/C=CC(=O)O1)COC(=O)c1ccccc1` (stereo unspecified), the EC50 was more than 309 µM and the IC50 is 5.89 µM.
Consider `O=Cc1cn(S(=O)(=O)c2ccccc2)c2ccccc12`, for which the result was inactive.
As to `O=C1C(Cl)C(c2ccc(O)cc2)N1n1cnc2ccccc2c1=O` (stereo unspecified), the EC50 is more than 15.1 µM and the concentration for half-maximal inhibition (IC50) is more than 15.1 µM.
As for `O=C1CSC2=NC3=C(CSC/C3=C\c3ccc(Cl)cc3)C(c3ccc(Cl)cc3)N12` (stereo unspecified), the EC50 is more than 200 µM and the IC50 was 9.77 µM.
With `Nc1nc(=S)[nH]c(C(=O)Nc2nccs2)c1-c1ccccc1`, the EC50 is more than 21.9 µM and the IC50 is more than 21.9 µM.
`CN(NC(=O)c1cccs1)C1=NCCCN1`: the EC50 was more than 200 µM and the IC50 was more than 200 µM.
On to `CCOC(=O)c1cc(C2(O)CCN(CC(C)CC)C2=O)c(-c2cc(C)no2)[nH]1` (stereo unspecified), for which the EC50 was more than 200 µM and the 50% inhibitory concentration (IC50) is more than 200 µM.
In the case of `CC(C)C(OC(=O)c1ccc(NCC2=CC(=O)C=CC2=O)cc1)C(C)C`, the EC50 was more than 20 µM and the IC50 is 9.12 µM.

(Values after PubChem BioAssay AID179 (DTP/NCI, 2004).)
